Source: BindingDB's records for doi:10.1016/j.bmcl.2019.05.020 (Meiji Pharmaceutical University, 2019)
pIC50: −log10 of the molar value.

Target: Amyloid-beta precursor protein (Homo sapiens, UniProt P05067)
Experiment: Inhibition of human amyloid beta (1 to 40) assessed as reduction in aggregation measured after 24 hrs by ThT fluorescence assay

Chain of Amyloid-beta precursor protein (P05067 whole entry): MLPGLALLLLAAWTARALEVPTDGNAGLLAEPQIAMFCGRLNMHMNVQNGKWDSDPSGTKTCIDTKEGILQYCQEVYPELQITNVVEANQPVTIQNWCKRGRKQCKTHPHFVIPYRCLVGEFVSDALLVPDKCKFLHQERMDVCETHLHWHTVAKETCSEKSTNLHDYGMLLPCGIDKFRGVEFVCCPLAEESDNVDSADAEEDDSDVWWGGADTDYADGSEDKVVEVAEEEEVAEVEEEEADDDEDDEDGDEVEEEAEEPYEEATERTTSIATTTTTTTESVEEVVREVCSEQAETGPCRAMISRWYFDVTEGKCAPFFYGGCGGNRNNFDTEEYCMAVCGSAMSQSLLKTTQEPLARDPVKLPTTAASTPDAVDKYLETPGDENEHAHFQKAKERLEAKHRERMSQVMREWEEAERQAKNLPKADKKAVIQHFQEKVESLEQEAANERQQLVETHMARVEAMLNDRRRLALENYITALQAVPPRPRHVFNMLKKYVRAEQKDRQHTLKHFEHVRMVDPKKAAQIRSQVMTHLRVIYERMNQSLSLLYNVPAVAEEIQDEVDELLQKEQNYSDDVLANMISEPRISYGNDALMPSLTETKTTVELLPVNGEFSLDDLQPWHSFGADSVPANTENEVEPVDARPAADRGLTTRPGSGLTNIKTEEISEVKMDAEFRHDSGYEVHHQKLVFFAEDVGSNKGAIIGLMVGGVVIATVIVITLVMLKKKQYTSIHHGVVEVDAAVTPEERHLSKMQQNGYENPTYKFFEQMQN

COc1ccc(-c2cc(=O)c3c(O)cc(O)c(-c4cc(-c5cc(O)c6c(=O)cc(O)cc-6o5)ccc4O)c3o2)cc1 [4'''-methylamentoflavone]
pIC50: 5.31

COc1ccc(-c2cc(O)c3c(=O)cc(O)cc-3o2)cc1-c1c(OC)cc(O)c2c(=O)cc(-c3ccc(O)cc3)oc12 [4',7''-di-O-methyl-amentoflavone]
pIC50: < 4.30

COc1ccc(-c2cc(=O)c3c(O)cc(OC)c(-c4cc(-c5cc(O)c6c(=O)cc(OC)cc-6o5)ccc4OC)c3o2)cc1 [7,4',7'',4'''-O-methyl-amentoflavone]
pIC50: < 4.30

COc1cc2oc(-c3ccc(OC)c(-c4c(OC)cc(O)c5c(=O)cc(-c6ccc(O)cc6)oc45)c3)cc(O)c-2c(=O)c1 [7-O-methyl-isoginkgetin]
pIC50: < 4.30

COc1ccc(-c2cc(=O)c3c(O)cc(OC)c(-c4cc(-c5cc(O)c6c(=O)cc(OC)cc-6o5)ccc4O)c3o2)cc1 [heveaflavone]
pIC50: < 4.30

COc1ccc(-c2cc(=O)c3c(O)cc(OC)c(-c4cc(-c5cc(O)c6c(=O)cc(O)cc-6o5)ccc4OC)c3o2)cc1 [kayaflavone]
pIC50: < 4.30

COc1ccc(-c2cc(=O)c3c(O)cc(O)c(-c4cc(-c5cc(O)c6c(=O)cc(OC)cc-6o5)ccc4OC)c3o2)cc1 [sciadopitisin]
pIC50: < 4.30

COc1cc2oc(-c3ccc(O)c(-c4c(O)cc(O)c5c(=O)cc(-c6ccc(O)cc6)oc45)c3)cc(O)c-2c(=O)c1 [sequoiaflavone]
pIC50: 5.31

COc1cc(O)c2c(=O)cc(-c3ccc(O)cc3)oc2c1-c1cc(-c2cc(O)c3c(=O)cc(O)cc-3o2)ccc1O [sotetsuflavone]
pIC50: < 4.30
